The text below walks through data of PubChem BioAssay AID1259407 (Chemical Carcinogenesis Research Information System (CCRIS), 2018).

In this series the test system is CCRIS mutagenicity, Ames/micronucleus/aberration tests. Description: CCRIS mutagenicity studies.
Where [1] appears, read: Test System: AMES SALMONELLA TYPHIMURIUM, Strain/Indicator: TA98, Metabolic Activation: NONE, Method: STANDARD PLATE.
Setting [2] is: Test System: AMES SALMONELLA TYPHIMURIUM, Strain/Indicator: TA100, Metabolic Activation: NONE, Method: STANDARD PLATE.
The mark [3] stands for this setting: Test System: AMES SALMONELLA TYPHIMURIUM, Strain/Indicator: TA98, Metabolic Activation: NONE, Method: PREINCUBATION
Setting [4] is: Test System: AMES SALMONELLA TYPHIMURIUM, Strain/Indicator: TA100, Metabolic Activation: NONE, Method: PREINCUBATION
Setting [5] is: Test System: AMES SALMONELLA TYPHIMURIUM, Strain/Indicator: TA1535, Metabolic Activation: NONE, Method: PREINCUBATION

The source made the active and inactive calls. The rule behind the calls is not given here.

For `NC(Cc1ccc(Cl)cc1)C(=O)O` (stereo unspecified), the mutagenic call (Test System: AMES SALMONELLA TYPHIMURIUM, Strain/Indicator: TA98, Metabolic Activation: NONE) is “inactive; negative”; the mutagenic call (Test System: AMES SALMONELLA TYPHIMURIUM, Strain/Indicator: TA100, Metabolic Activation: NONE) is “inactive; negative”; the mutagenic call (Test System: AMES SALMONELLA TYPHIMURIUM, Strain/Indicator: TA1535, Metabolic Activation: NONE) is “inactive; negative”; the mutagenic call (Test System: AMES SALMONELLA TYPHIMURIUM, Strain/Indicator: TA1537, Metabolic Activation: NONE) was “inactive; negative”; the mutagenic call (Test System: B. SUBTILIS, Strain/Indicator: BD190 REC, Metabolic Activation: NONE, Method: SPOT TEST) is “inactive; negative”; the mutagenic call (Test System: E.COLI, Strain/Indicator: WP6 POLA, Metabolic Activation: NONE, Method: SPOT TEST) was “inactive; negative”.
For `Cn1c2ccccc2c(=O)c2c(O)cc3c(c21)CC(C1(C)CO1)O3` (stereo unspecified), the mutagenic call runs as follows: under setting [1], “active; positive”; (Test System: AMES SALMONELLA TYPHIMURIUM, Strain/Indicator: TA98, Metabolic Activation: RAT, LIVER, S-9, 3-METHYLCHOLANTHRENE, Method: STANDARD PLATE) “active; positive”; (Test System: AMES SALMONELLA TYPHIMURIUM, Strain/Indicator: TA98, Metabolic Activation: RAT, LIVER, S-9, PHENOBARBITAL, Method: STANDARD PLATE) “active; positive”; (Test System: AMES SALMONELLA TYPHIMURIUM, Strain/Indicator: TA98, Metabolic Activation: RAT, LIVER, S-9, Method: STANDARD PLATE) “active; positive”; under setting [2], “active; positive”; (Test System: AMES SALMONELLA TYPHIMURIUM, Strain/Indicator: TA100, Metabolic Activation: RAT, LIVER, S-9, 3-METHYLCHOLANTHRENE, Method: STANDARD PLATE) “active; positive”. The mutagenic call was “active; positive” (Test System: AMES SALMONELLA TYPHIMURIUM, Strain/Indicator: TA100, Metabolic Activation: RAT, LIVER, S-9, PHENOBARBITAL, Method: STANDARD PLATE) and “active; positive” (Test System: AMES SALMONELLA TYPHIMURIUM, Strain/Indicator: TA100, Metabolic Activation: RAT, LIVER, S-9, Method: STANDARD PLATE).
On to `C=C(C)C(=O)OCCN(C)C`, for which the mutagenic call by setting is: under setting [3], “inactive; negative”; (Test System: AMES SALMONELLA TYPHIMURIUM, Strain/Indicator: TA98, Metabolic Activation: RAT LIVER S-9, PHENOBARBITAL AND BETA-NAPHTHOFLAVONE, Method: PREINCUBATION) “inactive; negative”; under setting [4], “inactive; negative”; (Test System: AMES SALMONELLA TYPHIMURIUM, Strain/Indicator: TA100, Metabolic Activation: RAT LIVER S-9, PHENOBARBITAL AND BETA-NAPHTHOFLAVONE, Method: PREINCUBATION) “inactive; negative”; (Test System: AMES SALMONELLA TYPHIMURIUM, Strain/Indicator: TA102, Metabolic Activation: NONE, Method: PREINCUBATION) “inactive; negative”; (Test System: AMES SALMONELLA TYPHIMURIUM, Strain/Indicator: TA102, Metabolic Activation: RAT LIVER S-9, PHENOBARBITAL AND BETA-NAPHTHOFLAVONE, Method: PREINCUBATION) “inactive; negative”. The mutagenic call (Test System: AMES SALMONELLA TYPHIMURIUM, Strain/Indicator: TA104, Metabolic Activation: NONE, Method: PREINCUBATION) is “inactive; negative”; the mutagenic call (Test System: AMES SALMONELLA TYPHIMURIUM, Strain/Indicator: TA104, Metabolic Activation: RAT LIVER S-9, PHENOBARBITAL AND BETA-NAPHTHOFLAVONE, Method: PREINCUBATION) is “active; positive”; the mutagenic call under setting [5] was “inactive; negative”; the mutagenic call (Test System: AMES SALMONELLA TYPHIMURIUM, Strain/Indicator: TA1535, Metabolic Activation: RAT LIVER S-9, PHENOBARBITAL AND BETA-NAPHTHOFLAVONE, Method: PREINCUBATION) is “inactive; negative”; the mutagenic call (Test System: AMES SALMONELLA TYPHIMURIUM, Strain/Indicator: TA1537, Metabolic Activation: NONE, Method: PREINCUBATION) was “inactive; negative”; the mutagenic call (Test System: AMES SALMONELLA TYPHIMURIUM, Strain/Indicator: TA1537, Metabolic Activation: RAT LIVER S-9, PHENOBARBITAL AND BETA-NAPHTHOFLAVONE, Method: PREINCUBATION) was “inactive; negative”. In addition, the mutagenic call is “inactive; negative” (Test System: E.COLI, Strain/Indicator: WP2UVRA/PKM101, Metabolic Activation: NONE, Method: PREINCUBATION); “inactive; negative” (Test System: E.COLI, Strain/Indicator: WP2UVRA/PKM101, Metabolic Activation: RAT LIVER S-9, PHENOBARBITAL AND BETA-NAPHTHOFLAVONE, Method: PREINCUBATION); “inactive; negative” (Test System: E.COLI, Strain/Indicator: WP2UVRA, Metabolic Activation: NONE, Method: PREINCUBATION); “inactive; negative” (Test System: E.COLI, Strain/Indicator: WP2UVRA, Metabolic Activation: RAT LIVER S-9, PHENOBARBITAL AND BETA-NAPHTHOFLAVONE, Method: PREINCUBATION).
Regarding `Cc1ccc(N(O)C=O)cc1`, the mutagenic call was “inactive; negative” under setting [1]; “active; positive” (Test System: AMES SALMONELLA TYPHIMURIUM, Strain/Indicator: TA98, Metabolic Activation: RAT, LIVER, S-9, AROCLOR 1254, Method: STANDARD PLATE); “inactive; negative” under setting [2]; “active; positive” (Test System: AMES SALMONELLA TYPHIMURIUM, Strain/Indicator: TA100, Metabolic Activation: RAT, LIVER, S-9, AROCLOR 1254, Method: STANDARD PLATE).
Regarding `CCC(C)COC(=O)/C=C/c1ccc(N=Cc2ccc(OC)cc2)cc1` (stereo unspecified), the mutagenic call was “inactive; negative” (Test System: AMES SALMONELLA TYPHIMURIUM, Strain/Indicator: TA98, Metabolic Activation: HAMSTER, LIVER, S-9, AROCLOR 1254 (30%), Method: PREINCUBATION); “inactive; negative” under setting [3]; “active; positive” (Test System: AMES SALMONELLA TYPHIMURIUM, Strain/Indicator: TA98, Metabolic Activation: RAT, LIVER, S-9, AROCLOR 1254 (30%), Method: PREINCUBATION); “active; positive” (Test System: AMES SALMONELLA TYPHIMURIUM, Strain/Indicator: TA100, Metabolic Activation: HAMSTER, LIVER, S-9, AROCLOR 1254 (30%), Method: PREINCUBATION); “inactive; negative” under setting [4]; “active; positive” (Test System: AMES SALMONELLA TYPHIMURIUM, Strain/Indicator: TA100, Metabolic Activation: RAT, LIVER, S-9, AROCLOR 1254 (30%), Method: PREINCUBATION).
Turning to `ClCc1ccc2ccc3cc4ccccc4c4ccc1c2c34`, the mutagenic call is “inactive; negative” under setting [1] and “inactive; negative” under setting [2].
Regarding `COC(=O)c1ccc([N+](=O)[O-])c2c(NCCCN(C)C)c3ccccc3nc12`, the mutagenic call was “active; positive” under setting [1] and “active; positive” under setting [2].
`C=CCNC(N)=S`: the mutagenic call runs as follows: (Test System: AMES SALMONELLA TYPHIMURIUM, Strain/Indicator: TA97, Metabolic Activation: HAMSTER, LIVER, S-9, AROCLOR 1254 (10 OR 30%), Method: PREINCUBATION) “inactive; negative”; (Test System: AMES SALMONELLA TYPHIMURIUM, Strain/Indicator: TA97, Metabolic Activation: NONE, Method: PREINCUBATION) “inactive; negative”; (Test System: AMES SALMONELLA TYPHIMURIUM, Strain/Indicator: TA97, Metabolic Activation: RAT, LIVER, S-9, AROCLOR 1254 (10 OR 30%), Method: PREINCUBATION) “inactive; negative”; (Test System: AMES SALMONELLA TYPHIMURIUM, Strain/Indicator: TA98, Metabolic Activation: HAMSTER, LIVER, S-9, AROCLOR 1254 (10 OR 30%), Method: PREINCUBATION) “inactive; negative”; under setting [3], “inactive; negative”; (Test System: AMES SALMONELLA TYPHIMURIUM, Strain/Indicator: TA98, Metabolic Activation: RAT, LIVER, S-9, AROCLOR 1254 (10 OR 30%), Method: PREINCUBATION) “inactive; negative”. In addition, the mutagenic call reads like this: (Test System: AMES SALMONELLA TYPHIMURIUM, Strain/Indicator: TA100, Metabolic Activation: HAMSTER, LIVER, S-9, AROCLOR 1254 (10 OR 30%), Method: PREINCUBATION) “inactive; negative”; under setting [4], “inactive; negative”; (Test System: AMES SALMONELLA TYPHIMURIUM, Strain/Indicator: TA100, Metabolic Activation: RAT, LIVER, S-9, AROCLOR 1254 (10 OR 30%), Method: PREINCUBATION) “inactive; negative”; (Test System: AMES SALMONELLA TYPHIMURIUM, Strain/Indicator: TA1535, Metabolic Activation: HAMSTER, LIVER, S-9, AROCLOR 1254 (10 OR 30%), Method: PREINCUBATION) “inactive; negative”; under setting [5], “inactive; negative”; (Test System: AMES SALMONELLA TYPHIMURIUM, Strain/Indicator: TA1535, Metabolic Activation: RAT, LIVER, S-9, AROCLOR 1254 (10 OR 30%), Method: PREINCUBATION) “inactive; negative”.
